How the values were obtained:
Experiment in all cases: -log10 GI50 (growth inhibition 50%) (-log10(M)); higher = more potent growth inhibition
HCC1419 = tested on: HCC1419
Summary of the method: (§1)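 Breast cancer cell lines were exposed to each compound for 72 hours at nine doses in 1:5 serial dilution, in triplicate, with a luminescence read-out against a time-zero plate. A Gompertz curve was fitted to the dose-response data by nonlinear least squares. The value is minus log10 of GI50, the molar concentration giving the set level of growth inhibition. Values equal to the top dose carry a < qualifier.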

MCF10F = tested on: MCF10F
Summary of the method: as §1

HCC1954 = tested on: HCC1954
Summary of the method: as §1

SUM52PE = tested on: SUM52PE
Summary of the method: as §1

SUM149PT = tested on: SUM149PT
Summary of the method: as §1

HCC1428 = tested on: HCC1428
Summary of the method: as §1

BT20 = tested on: BT20
Summary of the method: as §1

BT474 = tested on: BT474
Summary of the method: as §1

MDAMB134VI = tested on: MDAMB134VI
Summary of the method: as §1

HCC1143 = tested on: HCC1143
Summary of the method: as §1

CAMA1 = tested on: CAMA1
Summary of the method: as §1

T47D = tested on: T47D
Summary of the method: as §1

SUM159PT = tested on: SUM159PT
Summary of the method: as §1

184A1 = tested on: 184A1
Summary of the method: as §1

T47D_KBluc = tested on: T47D_KBluc
Summary of the method: as §1

HCC38 = tested on: HCC38
Summary of the method: as §1

MCF10A = tested on: MCF10A
Summary of the method: as §1

MCF12A = tested on: MCF12A
Summary of the method: as §1

HCC2185 = tested on: HCC2185
Summary of the method: as §1

MCF7 = tested on: MCF7
Summary of the method: as §1

MDAMB453 = tested on: MDAMB453
Summary of the method: as §1

SUM1315MO2 = tested on: SUM1315MO2
Summary of the method: as §1

BT549 = tested on: BT549
Summary of the method: as §1

HCC70 = tested on: HCC70
Summary of the method: as §1

HCC1187 = tested on: HCC1187
Summary of the method: as §1

ZR751 = tested on: ZR751
Summary of the method: as §1

HCC1937 = tested on: HCC1937
Summary of the method: as §1

HBL100 = tested on: HBL100
Summary of the method: as §1

HCC1395 = tested on: HCC1395
Summary of the method: as §1

BT483 = tested on: BT483
Summary of the method: as §1

SUM185PE = tested on: SUM185PE
Summary of the method: as §1

MX1 = tested on: MX1
Summary of the method: as §1

AU565 = tested on: AU565
Summary of the method: as §1

SKBR3 = tested on: SKBR3
Summary of the method: as §1

HCC202 = tested on: HCC202
Summary of the method: as §1

HCC1806 = tested on: HCC1806
Summary of the method: as §1

SUM225CWN = tested on: SUM225CWN
Summary of the method: as §1

MDAMB157 = tested on: MDAMB157
Summary of the method: as §1

MDAMB231 = tested on: MDAMB231
Summary of the method: as §1

MDAMB175VII = tested on: MDAMB175VII
Summary of the method: as §1

LY2 = tested on: LY2
Summary of the method: as §1

SUM229PE = tested on: SUM229PE
Summary of the method: as §1

HS578T = tested on: HS578T
Summary of the method: as §1

HCC3153 = tested on: HCC3153
Summary of the method: as §1

MDAMB415 = tested on: MDAMB415
Summary of the method: as §1

600MPE = tested on: 600MPE
Summary of the method: as §1

HCC1569 = tested on: HCC1569
Summary of the method: as §1

MDAMB361 = tested on: MDAMB361
Summary of the method: as §1

184B5 = tested on: 184B5
Summary of the method: as §1

SMILES: CCN(CC)CCNC(=O)c1c(C)[nH]c(/C=C2\C(=O)Nc3ccc(F)cc32)c1C [Sunitinib malate]
- -log10 GI50 (HCC1419): 4.72
- -log10 GI50 (MCF10F): 5.39
- -log10 GI50 (HCC1954): 5.26
- -log10 GI50 (SUM52PE): 5.94
- -log10 GI50 (SUM149PT): 5.57
- -log10 GI50 (HCC1428): 5.29
- -log10 GI50 (BT20): 4.79
- -log10 GI50 (BT474): 4.78
- -log10 GI50 (MDAMB134VI): 4.97
- -log10 GI50 (HCC1143): 5.16
- -log10 GI50 (CAMA1): 5.07
- -log10 GI50 (T47D): 4.94
- -log10 GI50 (SUM159PT): 5.81
- -log10 GI50 (184A1): 5.37
- -log10 GI50 (T47D_KBluc): 5.12
- -log10 GI50 (HCC38): 5.24
- -log10 GI50 (MCF10A): 5.27
- -log10 GI50 (MCF12A): 5.19
- -log10 GI50 (HCC2185): 4.7
- -log10 GI50 (MCF7): 5.23
- -log10 GI50 (MDAMB453): 5.3
- -log10 GI50 (SUM1315MO2): 5.12
- -log10 GI50 (BT549): 5.29
- -log10 GI50 (HCC70): 5.6
- -log10 GI50 (HCC1187): 5.26
- -log10 GI50 (ZR751): 4.88
- -log10 GI50 (HCC1937): 5.16
- -log10 GI50 (HBL100): 5.34
- -log10 GI50 (HCC1395): 5.35
- -log10 GI50 (BT483): 4.73
- -log10 GI50 (SUM185PE): 5.98
- -log10 GI50 (MX1): 5.27
- -log10 GI50 (AU565): 5.42
- -log10 GI50 (SKBR3): 5.17
- -log10 GI50 (HCC202): 5.03
- -log10 GI50 (HCC1806): 5.3
- -log10 GI50 (SUM225CWN): 5.21
- -log10 GI50 (MDAMB157): 5.21
- -log10 GI50 (MDAMB231): 5.44
- -log10 GI50 (MDAMB175VII): 5.18
- -log10 GI50 (LY2): 5.14
- -log10 GI50 (SUM229PE): 5.46
- -log10 GI50 (HS578T): 5.37
- -log10 GI50 (HCC3153): 4.96
- -log10 GI50 (MDAMB415): 5.25
- -log10 GI50 (600MPE): 5.4
- -log10 GI50 (HCC1569): 5.14
- -log10 GI50 (MDAMB361): 4.92
- -log10 GI50 (184B5): 5.28
